Source: patent US20120142672A1, “HETEROCYCLIC COMPOUND AND USE THEREOF” (priority 2009, published 2012)
Read-outs that look alike come from different tables or passages of the source.

System: Aβ42 production
Assay: Measurement of amyloid β production inhibition rate using primary nerve cell
Assay type: cell-based
Conditions: primary nerve cells from cerebral cortex of SD rat fetus, cultured 3 days with compound, sandwich ELISA BNT77-BC05 of culture supernatant, read-out: Aβ42 production inhibitory activity IC50
Method: (1) Measurement of Amyloid β Production Inhibition Rate Using Primary Nerve Cell
The primary nerve cells were collected from the cerebral cortex of rat fetus (CLEA Japan, Inc.: SD rat, fetal life 17 days of age), and suspended in a neurobasal medium containing B27 supplement, L-glutamine, penicillin-streptomycin (manufactured by Invitrogen) at 500,000 cells/mL. Then, the suspension was seeded in poly L-lysine-coated 96 well plate (manufactured by SUMITOMO BAKELITE) by 100 μL, and cultured at 37° C., 5% CO2 for 7 days. The medium was completely removed, and a new neurobasal medium was added at 75 μL/well. Thereto was added (75 μL/well) a neurobasal medium supplemented with a 2-fold measurement concentration of an evaluation target compound, and the cells were cultured for 3 days. The culture supernatant was collected from each well, diluted as appropriate, applied to sandwich ELISA between BNT77 antibody-BA27 antibody (for Aβ40) and sandwich ELISA between BNT77 antibody-BC05 antibody (for Aβ42), and the amounts of Aβ40 and Aβ42 were measured.
The amyloid β production inhibition rate (%) of the compound was calculated by the following formula.
(1−(amyloid β production amount with addition of compound)/(amyloid β production amount without addition of compound))×100

| Structure (SMILES) | IC50 (Rattus norvegicus, 72 h) | IC50 |
| --- | --- | --- |
| COc1cc(-c2nnc3n2CCCC3c2ccccc2C(F)(F)F)ccc1-c1cnc(C)o1 (centres unmarked) [Example 8, 3-[3-methoxy-4-(2-methyl-1,3-oxazol-5-yl)phenyl]-8-[2-(trifluoromethyl)phenyl]-5,6,7,8-tetrahydro[1,2,4]triazolo[4,3-a]pyridine] | 88 nM | – |
| COc1cc(-c2nnc3n2CCCC3c2ccc(Cl)c(Cl)c2)ccc1-c1cnc(C)o1 (centres unmarked) [Example 1, 8-(3,4-dichlorophenyl)-3-[3-methoxy-4-(2-methyl-1,3-oxazol-5-yl)phenyl]-5,6,7,8-tetrahydro[1,2,4]triazolo[4,3-a]pyridine] | – | 90 nM |
| COc1cc(-c2nnc3n2CCCC3c2ccc(Cl)c(Cl)c2)ccc1-c1cnc(C)o1 (single isomer, unassigned; (+)) [Example 2, (+)-8-(3,4-dichlorophenyl)-3-[3-methoxy-4-(2-methyl-1,3-oxazol-5-yl)phenyl]-5,6,7,8-tetrahydro[1,2,4]triazolo[4,3-a]pyridine] | – | 34 nM |
| COc1cc(-c2nnc3n2CCCCC3c2ccc(Cl)c(Cl)c2)ccc1-c1cnc(C)o1 (centres unmarked) [Example 15, 9-(3,4-dichlorophenyl)-3-[3-methoxy-4-(2-methyl-1,3-oxazol-5-yl)phenyl]-6,7,8,9-tetrahydro-5H-[1,2,4]triazolo[4,3-a]azepine] | 170 nM | – |
| COc1cc(-c2nc3n(n2)CCCC3c2ccccc2C(F)(F)F)ccc1-c1cnc(C)o1 (centres unmarked) [Example 12, 2-[3-methoxy-4-(2-methyl-1,3-oxazol-5-yl)phenyl]-8-[2-(trifluoromethyl)phenyl]-5,6,7,8-tetrahydro[1,2,4]triazolo[1,5-a]pyridine] | 150 nM | – |

Continued, values first:

| IC50 (Rattus norvegicus, 72 h) | IC50 | Structure (SMILES) |
| --- | --- | --- |
| 200 nM | – | COc1cc(-c2nnc3n2CCCC3c2ccc(F)cc2C(F)(F)F)ccc1-c1cnc(C)o1 (centres unmarked) [Example 28, 8-[4-fluoro-2-(trifluoromethyl)phenyl]-3-[3-methoxy-4-(2-methyl-1,3-oxazol-5-yl)phenyl]-5,6,7,8-tetrahydro[1,2,4]triazolo[4,3-a]pyridine] |
| 42 nM | – | COc1cc(-c2nnc3n2CCC[C@@H]3c2ccc(Cl)cc2C(F)(F)F)ccc1-c1cnc(C)o1 [Example 34, (R)-(+)-8-[4-chloro-2-(trifluoromethyl)phenyl]-3-[3-methoxy-4-(2-methyl-1,3-oxazol-5-yl)phenyl]-5,6,7,8-tetrahydro[1,2,4]triazolo[4,3-a]pyridine] |
| 88 nM | – | COc1cc(-c2nnc3n2CCCC3Oc2ccc(Cl)c(Cl)c2)ccc1-c1cnc(C)o1 (centres unmarked) [Example 25, 8-(3,4-dichlorophenoxy)-3-[3-methoxy-4-(2-methyl-1,3-oxazol-5-yl)phenyl]-5,6,7,8-tetrahydro[1,2,4]triazolo[4,3-a]pyridine] |
